The values that follow come from patent publication US10172378B2, “Mono- or bicyclic carboxylic acids as off-note blockers” (Givaudan, S.A., priority 2007, dated 2019).

This experiment addresses T1, human TAS2R44 bitter taste receptor (Homo sapiens, UniProt P59538, L162M).
T1 construct: The TAS2R44 construct contains RSS tag, TAS2R44, and the HSV tag which are fused in frame; expressed in transfected cells; host or cells: HEK293T cells stably expressing Galpha16-gustducin44
T1 sequence (P59538 with tags, fused parts or gaps L162M): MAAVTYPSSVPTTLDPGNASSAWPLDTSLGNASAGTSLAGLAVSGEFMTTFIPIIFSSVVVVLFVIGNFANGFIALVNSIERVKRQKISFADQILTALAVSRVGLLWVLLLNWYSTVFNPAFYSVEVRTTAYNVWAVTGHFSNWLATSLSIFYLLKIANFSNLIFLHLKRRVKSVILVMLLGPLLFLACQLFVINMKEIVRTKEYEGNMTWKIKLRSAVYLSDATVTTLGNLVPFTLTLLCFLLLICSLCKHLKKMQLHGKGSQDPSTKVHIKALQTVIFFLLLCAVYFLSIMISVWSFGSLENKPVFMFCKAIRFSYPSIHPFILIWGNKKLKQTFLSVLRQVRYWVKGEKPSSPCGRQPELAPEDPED
Kind of experiment: TAS2R44 bitter taste receptor Fluo-4 calcium assay for IC50 determination. The experiment is classed as cell-based. As for the experimental part:
A taste receptor screen and concentration-response analysis was performed and from results inhibitory concentration (IC) IC50 values can be calculated by nonlinear regression using the function f(x)=(a−d)/(1+(x/C)^nh)+d; with a=minimum signal, d=maximum signal, nh=hill coefficient, C=IC50 and x=concentration of antagonist. IC50 is the molar concentration of an antagonist which produces 50% of the maximum possible inhibitory response for that antagonist.
TAS2R44 Bitter Taste Receptor Assay for IC 50 Determination
The full length gene of human TAS2R44 was amplified by polymerase chain reaction (PCR) using gene-specific primers that span the entire coding region as described in WO 2004/029087.
The TAS2R44 cDNA was subcloned into an expression cassette based on either of the following plasmids/expression vectors: pcDNA3.1Zeo (Invitrogen). These vectors contain within their multiple cloning sites the nucleotide sequence coding for the first 45 amino acids of the rat somatostatin receptor subtype 3 (RSS tag) to facilitate cell surface targeting of the transgene (SEQ ID #4) and the nucleotide sequence coding for the herpes simplex virus (HSV) glycoprotein D epitope (HSV epitope in aminoterminal to carboxyterminal direction, HSV tag). (SEQ ID #3) for facilitating immunocytochemical detection.
The TAS2R44 construct contains RSS tag, TAS2R44, and the HSV tag which are fused in frame to allow translation into the receptor protein and the resulting receptor cDNA.
This transfected expression vector is called pcDNA3.1Zeo-TAS2R44 (SEQ ID #1) and allows for expression of the TAS2R44 protein (SEQ ID #2).
A cell line that stably expresses the human bitter taste receptor (TAS2R44) was generated by transfecting pcDNA3.1Zeo-TAS2R44 into HEK293T/Gα16-gustducin 44 cells (both formed as described in under 1) above). The host cell line HEK-293T is commercially available from the American […] (catalog #CRL-1573).
On day 0, the HEK293T Gα16-gustducin44 cells were seeded in a 6-well plate at a density of 900,000 cells per well and grown over night in selective growth medium (DMEM with 10% (v/v) heat-inactivated fetal bovine serum, 2 mM L-glutamine, 100 units/ml penicillin, 100 μg/ml streptomycin, 200 μg/ml G418 and 200 μg/ml zeocin). On day 1, the medium was exchanged with 2 ml of antibiotic-free and serum-free growth medium. 10 μl Lipofectamine 2000 was dissolved in 250 μl DMEM and incubated for 5 minutes at room temperature. In parallel, 4 μg TAS2R44 vector DNA were dissolved in 250 μl DMEM. These two resulting solutions are mixed and incubated for 20 minutes at room temperature before they are added to the cells into the cell culture medium. After 4 hours, the medium is replaced with antibiotic-free, serum-containing growth medium.
Fluo-4_AM (Invitrogen) is a fluorescent indicator of intracellular calcium dynamics (change in concentration) and allows monitoring changes in the calcium concentration, particularly an increase in response to receptor activation occurring after agonist exposure.
At day 0, the HEK293T cell line stably expressing Gα16-gustducin44 and TAS2R44 formed as described under 2) was seeded in antibiotic-free growth medium (standard DMEM with 10% (v/v) heat-inactivated fetal bovine serum, 2 mM L-glutamine […]) into black wall/clear bottom 96-well plates, coated with poly(ethylenimine) (0.005% v/v) at a concentration of 15,000 cells per well and incubated for 48 hours in humidified atmosphere (37° C., 5% CO2).
At the time of the assay, the growth medium was discarded and the cells were further incubated in a humidified atmosphere (37° C., 5% CO2) for 1 hour with 50 μl of loading buffer consisting of 1.5 μM Fluo-4 AM and […] (Sigma-Aldrich) in DMEM. […]

Setting [1] is: agonist not stated, read-out: IC50 when tested with the TAS2R44 bitter taste receptor.
The mark [2] stands for this setting: Acesulfame K (0.8 mM) as agonist, same range as example 3.
Setting [3] is: saccharin (0.5 mM) as agonist, HEK293T cells expressing Gα16-gustducin44 and TAS2R44, read-out: IC50.

Where two headings read alike, the source gives them in different places.

Take `CC(C)CCC[C@H]1CC[C@@H](C(=O)O)CC1` [cis-4-(4-methylpentyl)cyclohexanecarboxylic acid]: the IC50 under setting [1] was in the range of 0.1 to 20 µM.
Take `O=C(O)[C@H]1CC[C@@H](Cc2ccccc2)CC1` [cis-4-benzylcyclohexanecarboxylic acid]: the IC50 under setting [1] fell in the range of 0.1 to 20 µM.
For `O=C(O)[C@H]1CC[C@@H](c2ccccc2)CC1` [cis-4-phenylcyclohexanecarboxylic acid], under setting [1], the IC50 was 0.1 to 20 µM.
For the molecule `CCC[C@]12CC[C@](C(=O)O)(CC1)CC2` [cis-4-propylbicyclo[2.2.2]octane-1-carboxylic acid], under setting [1], the IC50 fell in the range of 0.1 to 20 µM.
Consider `CCC[C@H]1CC[C@@H](C(=O)O)CC1` [cis-4-propylcyclohexanecarboxylic acid], for which the IC50 entry by setting is: under setting [2], “within the same range”; under setting [1], 0.1 to 20 µM; under setting [3], 0.05 to 25 µM.
For the molecule `CCC(C)[C@H]1CC[C@@H](C(=O)O)CC1` (stereo partly drawn) [cis-4-sec-butylcyclohexanecarboxylic acid], the IC50 under setting [1] was 0.1 to 20 µM.
On to `CC(C)(C)[C@H]1CC[C@@H](C(=O)O)CC1` [cis-4-tert-butylcyclohexanecarboxylic acid], for which the IC50 result runs as follows: under setting [2], “within the same range”; under setting [1], 0.1 to 20 µM; under setting [3], 0.05 to 25 µM.

As usually defined, the IC50 is the point on the concentration scale where inhibition reaches its midpoint.
